biological target: CRBN truncate (318-426) (Homo sapiens (Human), UniProt Q96SW2); experiment: Measurement of molecular interactions using surface plasmon resonance (SPR), Biacore T200; format: binding; details: 25° C., immobilized CRBN truncate, upper limit of measurement 200 μM
Procedure, shortened: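 C-terminally Avi-tagged CRBN (318-426) captured on a streptavidin SA chip on a Biacore T200. Running buffer 10 mM HEPES pH 7.5, 150 mM NaCl, 1 mM TCEP, 0.005% Tween 20, 2% DMSO; 60 s contact, 120 s dissociation.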

Sequence of CRBN truncate (318-426) (Q96SW2 318-426): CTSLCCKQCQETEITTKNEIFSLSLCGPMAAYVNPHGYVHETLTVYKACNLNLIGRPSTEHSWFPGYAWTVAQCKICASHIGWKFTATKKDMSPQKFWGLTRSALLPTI

SMILES	Kd
Cc1sc2c(c1C)C(c1ccc(Cl)cc1)=N[C@@H](CC(=O)NCCCCCCCCNC(=O)c1cc3c(N4CCC5(CCCC(=O)NC5=O)C4)ncnc3n1C)c1nnc(C)n1-2 (stereo partly drawn) [Example 328, N-[8-[[2-[(9S)-7-(4-Chlorophenyl)-4,5,13-trimethyl-3-thia-1,8,11,12-tetraazatricyclo[8.3.0.02,6]trideca-2(6),4,7,10,12-pentaen-9-yl]acetyl]amino]octyl]-4-(6,8-dioxo-2,7-diazaspiro[4.6]undecan-2-yl)-7-methylpyrrolo[2,3-d]pyrimidine-6-carboxamide]	< 50 µM
Cc1sc2c(c1C)C(c1ccc(Cl)cc1)=N[C@@H](CC(=O)NCCCCCCCCNC(=O)c1ccc3nc(N4CCC5(CCCC(=O)NC5=O)C4)sc3c1)c1nnc(C)n1-2 (stereo partly drawn) [Example 329, N-[8-[[2-[(9S)-7-(4-chlorophenyl)-4,5,13-trimethyl-3-thia-1,8,11,12-tetraazatricyclo[8.3.0.02,6]trideca-2(6),4,7,10,12-pentaen-9-yl]acetyl]amino]octyl]-2-(6,8-dioxo-2,7-diazaspiro[4.6]undecan-2-yl)-1,3-benzothiazole-6-carboxamide]	< 50 µM
Cc1sc2c(c1C)C(c1ccc(Cl)cc1)=N[C@@H](CC(=O)NCCCCCCCCNC(=O)c1ccc(N3CC4(CC(=O)N(C5CCC(=O)NC5=O)C4=O)C3)nc1)c1nnc(C)n1-2 (stereo partly drawn) [Example 330, N-[8-[[2-[(9S)-7-(4-chlorophenyl)-4,5,13-trimethyl-3-thia-1,8,11,12-tetraazatricyclo[8.3.0.02,6]trideca-2(6),4,7,10,12-pentaen-9-yl]acetyl]amino]octyl]-6-[6-(2,6-dioxopiperidin-3-yl)-5,7-dioxo-2,6-diazaspiro[3.4]octan-2-yl]pyridine-3-carboxamide]	< 50 µM
Cc1sc2c(c1C)C(c1ccc(Cl)cc1)=N[C@@H](CC(=O)NCCCCCCCCNC(=O)CN1CC3(CC(=O)N(C4CCC(=O)NC4=O)C3=O)C1)c1nnc(C)n1-2 (stereo partly drawn) [Example 331, 2-[(9S)-7-(4-chlorophenyl)-4,5,13-trimethyl-3-thia-1,8,11,12-tetraazatricyclo[8.3.0.02,6]trideca-2(6),4,7,10,12-pentaen-9-yl]-N-[8-[[2-[6-(2,6-dioxopiperidin-3-yl)-5,7-dioxo-2,6-diazaspiro[3.4]octan-2-yl]acetyl]amino]octyl]acetamide]	< 50 µM
Cc1sc2c(c1C)C(c1ccc(Cl)cc1)=N[C@@H](CC(=O)NCCCCCCCCNC(=O)Cn1c(=O)n(C3CCCC(=O)NC3=O)c3ccccc31)c1nnc(C)n1-2 (stereo partly drawn) [Example 332, 2-[(9S)-7-(4-chlorophenyl)-4,5,13-trimethyl-3-thia-1,8,11,12-tetraazatricyclo[8.3.0.02,6]trideca-2(6),4,7,10,12-pentaen-9-yl]-N-[8-[[2-[3-(2,7-dioxoazepan-3-yl)-2-oxobenzimidazol-1-yl]acetyl]amino]octyl]acetamide]	< 50 µM
Cc1sc2c(c1C)C(c1ccc(Cl)cc1)=N[C@@H](CC(=O)NCCCCCCCCNC(=O)CCc1cccc3c1n(C)c(=O)n3C1CCCC(=O)NC1=O)c1nnc(C)n1-2 (stereo partly drawn) [Example 333, N-[8-[[2-[(9S)-7-(4-chlorophenyl)-4,5,13-trimethyl-3-thia-1,8,11,12-tetraazatricyclo[8.3.0.02,6]trideca-2(6),4,7,10,12-pentaen-9-yl]acetyl]amino]octyl]-3-[1-(2,7-dioxoazepan-3-yl)-3-methyl-2-oxobenzimidazol-4-yl]propanamide]	< 50 µM
Cc1sc2c(c1C)C(c1ccc(Cl)cc1)=N[C@@H](CC(=O)NCCCCCCCCNC(=O)CCc1nn(C3CCCC(=O)NC3=O)c3ccccc13)c1nnc(C)n1-2 (stereo partly drawn) [Example 334, N-[8-[[2-[(9S)-7-(4-chlorophenyl)-4,5,13-trimethyl-3-thia-1,8,11,12-tetraazatricyclo[8.3.0.02,6]trideca-2(6),4,7,10,12-pentaen-9-yl]acetyl]amino]octyl]-3-[1-(2,7-dioxoazepan-3-yl)indazol-3-yl]propanamide]	< 50 µM
Cc1sc2c(c1C)C(c1ccc(Cl)cc1)=N[C@@H](CC(=O)NCCCCCCCCNC(=O)c1ccc(N3CCC4(CCCC(=O)NC4=O)CC3=O)nc1)c1nnc(C)n1-2 (stereo partly drawn) [Example 335, N-[8-[[2-[(9S)-7-(4-chlorophenyl)-4,5,13-trimethyl-3-thia-1,8,11,12-tetraazatricyclo[8.3.0.02,6]trideca-2(6),4,7,10,12-pentaen-9-yl]acetyl]amino]octyl]-6-(4,7,9-trioxo-3,8-diazaspiro[5.6]dodecan-3-yl)pyridine-3-carboxamide]	≥ 100 µM
Cc1sc2c(c1C)C(c1ccc(Cl)cc1)=N[C@@H](CC(=O)NCCCCCCCCNC(=O)CCc1ccc(-c3nn(C4CCCC(=O)NC4=O)c(=O)n3C)cc1)c1nnc(C)n1-2 (stereo partly drawn) [Example 336, N-[8-[[2-[(9S)-7-(4-chlorophenyl)-4,5,13-trimethyl-3-thia-1,8,11,12-tetraazatricyclo[8.3.0.02,6]trideca-2(6),4,7,10,12-pentaen-9-yl]acetyl]amino]octyl]-3-[4-[1-(2,7-dioxoazepan-3-yl)-4-methyl-5-oxo-1,2,4-triazol-3-yl]phenyl]propanamide]	< 50 µM
Cc1sc2c(c1C)C(c1ccc(Cl)cc1)=N[C@@H](CC(=O)NCCCCCCCCNC(=O)c1ccc3nc(N4CC5(CC(=O)N(C6CCC(=O)NC6=O)C5=O)C4)sc3c1)c1nnc(C)n1-2 (stereo partly drawn) [Example 337, N-[8-[[2-[(9S)-7-(4-chlorophenyl)-4,5,13-trimethyl-3-thia-1,8,11,12-tetraazatricyclo[8.3.0.02,6]trideca-2(6),4,7,10,12-pentaen-9-yl]acetyl]amino]octyl]-2-[6-(2,6-dioxopiperidin-3-yl)-5,7-dioxo-2,6-diazaspiro[3.4]octan-2-yl]-1,3-benzothiazole-6-carboxamide]	< 50 µM
Cc1sc2c(c1C)C(c1ccc(Cl)cc1)=N[C@@H](CC(=O)NCCCCCCCCNC(=O)c1ccc(OC3CCCC(=O)NC3=O)nc1)c1nnc(C)n1-2 (stereo partly drawn) [Example 338, N-[8-[[2-[(9S)-7-(4-chlorophenyl)-4,5,13-trimethyl-3-thia-1,8,11,12-tetraazatricyclo[8.3.0.02,6]trideca-2(6),4,7,10,12-pentaen-9-yl]acetyl]amino]octyl]-6-(2,7-dioxoazepan-3-yl)oxypyridine-3-carboxamide]	< 50 µM
Cc1sc2c(c1C)C(c1ccc(Cl)cc1)=N[C@@H](CC(=O)NCCCCCCCCNC(=O)COc1ccc(C#N)c(N3CCC4(CCCC(=O)NC4=O)C3)c1)c1nnc(C)n1-2 (stereo partly drawn) [Example 339, 2-[(9S)-7-(4-chlorophenyl)-4,5,13-trimethyl-3-thia-1,8,11,12-tetraazatricyclo[8.3.0.02,6]trideca-2(6),4,7,10,12-pentaen-9-yl]-N-[8-[[2-[4-cyano-3-(6,8-dioxo-2,7-diazaspiro[4.6]undecan-2-yl)phenoxy]acetyl]amino]octyl]acetamide]	< 50 µM
Cc1sc2c(c1C)C(c1ccc(Cl)cc1)=N[C@@H](CC(=O)NCCCCCCCCNC(=O)COc1ccccc1-c1cn(C3CCCC(=O)NC3=O)nn1)c1nnc(C)n1-2 (stereo partly drawn) [Example 340, 2-[(9S)-7-(4-chlorophenyl)-4,5,13-trimethyl-3-thia-1,8,11,12-tetraazatricyclo[8.3.0.02,6]trideca-2(6),4,7,10,12-pentaen-9-yl]-N-[8-[[2-[2-[1-(2,7-dioxoazepan-3-yl)triazol-4-yl]phenoxy]acetyl]amino]octyl]acetamide]	< 50 µM
Cc1sc2c(c1C)C(c1ccc(Cl)cc1)=N[C@@H](CC(=O)NCCCCCCCCNC(=O)CCc1ccc3c(c1)oc(=O)n3C1CCCC(=O)NC1=O)c1nnc(C)n1-2 (stereo partly drawn) [Example 341, N-[8-[[2-[(9S)-7-(4-chlorophenyl)-4,5,13-trimethyl-3-thia-1,8,11,12-tetraazatricyclo[8.3.0.02,6]trideca-2(6),4,7,10,12-pentaen-9-yl]acetyl]amino]octyl]-3-[3-(2,7-dioxoazepan-3-yl)-2-oxo-1,3-benzoxazol-6-yl]propanamide]	< 50 µM
Cc1sc2c(c1C)C(c1ccc(Cl)cc1)=N[C@@H](CC(=O)NCCCCCCCCNC(=O)CCc1ccc3c(c1)sc(=O)n3C1CCCC(=O)NC1=O)c1nnc(C)n1-2 (stereo partly drawn) [Example 342, N-[8-[[2-[(9S)-7-(4-chlorophenyl)-4,5,13-trimethyl-3-thia-1,8,11,12-tetraazatricyclo[8.3.0.02,6]trideca-2(6),4,7,10,12-pentaen-9-yl]acetyl]amino]octyl]-3-[3-(2,7-dioxoazepan-3-yl)-2-oxo-1,3-benzothiazol-6-yl]propanamide]	< 50 µM
Cc1sc2c(c1C)C(c1ccc(Cl)cc1)=N[C@@H](CC(=O)NCCCCCCCCNC(=O)CCc1cccc3c(=O)n(C4CCCC(=O)NC4=O)ccc13)c1nnc(C)n1-2 (stereo partly drawn) [Example 343, N-[8-[[2-[(9S)-7-(4-chlorophenyl)-4,5,13-trimethyl-3-thia-1,8,11,12-tetraazatricyclo[8.3.0.02,6]trideca-2(6),4,7,10,12-pentaen-9-yl]acetyl]amino]octyl]-3-[2-(2,7-dioxoazepan-3-yl)-1-oxoisoquinolin-5-yl]propanamide]	< 50 µM
Cc1sc2c(c1C)C(c1ccc(Cl)cc1)=N[C@@H](CC(=O)NCCCCCCCCNC(=O)CCc1ccc3c(=O)n(C4CCCC(=O)NC4=O)c(=O)n(C)c3c1)c1nnc(C)n1-2 (stereo partly drawn) [Example 344, N-[8-[[2-[(9S)-7-(4-chlorophenyl)-4,5,13-trimethyl-3-thia-1,8,11,12-tetraazatricyclo[8.3.0.02,6]trideca-2(6),4,7,10,12-pentaen-9-yl]acetyl]amino]octyl]-3-[3-(2,7-dioxoazepan-3-yl)-1-methyl-2,4-dioxo-quinazolin-7-yl]propanamide]	< 50 µM
Cc1sc2c(c1C)C(c1ccc(Cl)cc1)=N[C@@H](CC(=O)NCCCCCCCNC(=O)CN1CCC3(CCCC(=O)NC3=O)CC1=O)c1nnc(C)n1-2 (stereo partly drawn) [Example 345, 2-[(9S)-7-(4-chlorophenyl)-4,5,13-trimethyl-3-thia-1,8,11,12-tetraazatricyclo[8.3.0.02,6]trideca-2(6),4,7,10,12-pentaen-9-yl]-N-[7-[[2-(4,7,9-trioxo-3,8-diazaspiro[5.6]dodecan-3-yl)acetyl]amino]heptyl]acetamide]	50 to 100 µM

— patent US20250388593A1 (MITSUBISHI TANABE PHARMA CORPORATION, priority 2023, published 2025)
